Measured values from patent US7326803B2, “Ligand inhibitors of the RAR receptors, process for preparing same and therapeutic/cosmetic applications thereof” (Galderma Research & Development, priority 2002, dated 2008).

Assays:
Assay type in all cases: cell-based
[1] = target: T1, RAR beta (Homo sapiens, UniProt P10826); experiment: Transactivation test (luciferase reporter, HeLa cells), RAR beta; conditions: HeLa stable transfectants; for Kd: Schild regression against reference agonist 4-[2-(5,5,8,8-tetramethyl-5,6,7,8-tetrahydro-2-naphthyl)propenyl]benzoic acid, read-out: RAR beta Kdapp; for IC50: reference ligand at the concentration that gives 80% activation
T1 sequence (P10826 183-417 limits assumed): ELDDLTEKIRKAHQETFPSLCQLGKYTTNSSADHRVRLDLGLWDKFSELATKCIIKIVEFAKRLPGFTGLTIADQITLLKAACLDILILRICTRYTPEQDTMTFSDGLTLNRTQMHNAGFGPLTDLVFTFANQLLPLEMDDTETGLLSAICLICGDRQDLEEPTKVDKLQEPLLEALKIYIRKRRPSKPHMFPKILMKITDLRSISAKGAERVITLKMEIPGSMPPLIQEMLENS
Protocol: (§1) The activation of receptors with an agonist (activator) in HeLa cells leads to the expression of a reporter gene, luciferase, which, in the presence of a substrate, generates light. The activation of the receptors may thus be measured by quantifying the luminescence produced after incubating the cells in the presence of a reference agonist. The inhibitory products displace the agonist from its site, thus preventing activation of the receptor. The activity is measured by quantifying the reduction in light produced. This measurement makes it possible to determine the inhibitory activity of the compounds according to the invention.
(§2) Determination of the Kdapp:
(§3) In this study, a constant is determined which represents the affinity of the molecule for the receptor. Since this value can fluctuate depending on the basal activity and the expression of the receptor, it is referred to as the Kdapparent (KdApp).
(§4) To determine this constant, “crossed curves” of the test product against a reference agonist, 4-[2-(5,5,8,8-tetramethyl-5,6,7,8-tetrahydro-2-naphthyl)propenyl]benzoic acid, are performed in 96-well plates. The test product is used at 10 concentrations and the reference agonist at 7 concentrations. In each well, the cells are in contact with a concentration of the test product and a concentration of the reference agonist, 4-[2-(5,5,8,8-tetramethyl-5,6,7,8-tetrahydro-2-naphthyl)propenyl]benzoic acid. Measurements are also taken for the total agonist (4-[2-(5,5,8,8-tetramethyl-5,6,7,8-tetrahydro-2-naphthyl)propenyl]benzoic acid) and inverse agonist, 4-{(E)-3-[4-(4-tert-butylphenyl)-5,5,8,8-tetramethyl-5,6,7,8-tetrahydro-2-naphthyl]-3-oxopropenyl}benzoic acid, controls.
(§5) These crossed curves make it possible to determine the AC50 values (concentration at which 50% activation is observed) for the reference ligand at various concentrations of test product. These AC50 values are used to calculate the Schild regression by plotting a straight line corresponding to the Schild equation (“quantitation in receptor pharmacology” Terry P. Kenakin, Receptors and Channels, 2001, 7, 371-385).
(§6) In the case of an antagonist, an IC50 value (concentration that inhibits 50% of the activity) is calculated by plotting the curve of the product at the concentration of the reference ligand that gives 80% activation.
(§7) The HeLa cell lines used are stable transfectants containing the plasmids ERE-βGlob-Luc-SV-Neo (reporter gene) and RAR (α, β, γ) ER-DBD-puro. These cells are inoculated into 96-well plates at a rate of 10 000 cells per well in 100 μl of DMEM medium without phenol red, and supplemented with 10% defatted calf serum. The plates are then incubated at 37° C. and 7% CO2 for 4 hours.
(§8) The various dilutions of the test products, of the reference ligand (4-[2-(5,5,8,8-tetramethyl-5,6,7,8-tetrahydro-2-naphthyl)propenyl]benzoic acid), of the 100% control (100 nM 4-[2-(5,5,8,8-tetramethyl-5,6,7,8-tetrahydro-2-naphthyl)propenyl]benzoic acid) and of the 0% control (500 nM 4-{(E)-3-[4-(4-tert-butylphenyl)-5,5,8,8-tetramethyl-5,6,7,8-tetrahydro-2-naphthyl]-3-oxopropenyl}benzoic acid) are added at a rate of 5 μl per well. The plates are then incubated for 18 hours at 37° C. and 7% CO2.
(§9) The culture medium is removed by turning over and 100 μl of a 1:1 PBS/luciferine mixture is added to each well. After 5 minutes, the plates are read using the luminescence detector.

[2] = target: T2, RAR alpha (Homo sapiens, UniProt P10276); experiment: Transactivation test (luciferase reporter, HeLa cells), RAR alpha; conditions: HeLa stable transfectants; for Kd: Schild regression against reference agonist 4-[2-(5,5,8,8-tetramethyl-5,6,7,8-tetrahydro-2-naphthyl)propenyl]benzoic acid, read-out: RAR alpha Kdapp; for IC50: reference ligand at the concentration that gives 80% activation
T2 sequence (P10276 183-417 limits assumed): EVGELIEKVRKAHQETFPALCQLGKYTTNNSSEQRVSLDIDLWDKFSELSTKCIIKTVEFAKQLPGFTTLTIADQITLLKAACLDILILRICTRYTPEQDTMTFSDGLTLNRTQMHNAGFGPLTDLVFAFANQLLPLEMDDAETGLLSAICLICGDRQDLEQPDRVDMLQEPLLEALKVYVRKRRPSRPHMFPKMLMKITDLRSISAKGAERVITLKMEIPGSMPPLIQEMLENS
Protocol: as §1, §2, §3, §4, §5, §6, §7, §8, §9

[3] = target: T3, RAR gamma (Homo sapiens, UniProt P13631); experiment: Transactivation test (luciferase reporter, HeLa cells), RAR gamma; conditions: HeLa stable transfectants; for Kd: Schild regression against reference agonist 4-[2-(5,5,8,8-tetramethyl-5,6,7,8-tetrahydro-2-naphthyl)propenyl]benzoic acid, read-out: RAR gamma Kdapp; for IC50: reference ligand at the concentration that gives 80% activation
T3 sequence (P13631 185-419 limits assumed): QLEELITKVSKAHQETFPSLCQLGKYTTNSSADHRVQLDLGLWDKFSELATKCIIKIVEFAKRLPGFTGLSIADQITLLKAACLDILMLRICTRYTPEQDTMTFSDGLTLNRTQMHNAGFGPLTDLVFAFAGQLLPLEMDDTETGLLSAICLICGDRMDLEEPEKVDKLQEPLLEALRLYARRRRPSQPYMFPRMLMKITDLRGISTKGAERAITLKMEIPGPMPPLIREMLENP
Protocol: as §1, §2, §3, §4, §5, §6, §7, §8, §9

Structure (SMILES)	Kd [1] [nM]	IC50 [1] [nM]	Kd [2] [nM]	IC50 [2] [nM]	Kd [3] [nM]	IC50 [3] [nM]
CC1(C)CCC(C)(C)c2c(OCc3ccc(F)cc3)cc([Se]C#Cc3ccc(C(=O)O)cc3)cc21 [Ex 11, 4-[5,5,8,8-tetramethyl-4-(4-fluorobenzyloxy)-5,6,7,8-tetrahydro-2-naphthylselanylethynyl]benzoic acid]	4	6.4	8	14	1	2.5
CC(C)(C)c1ccc(COc2cc([Se]C#Cc3ccc(C(=O)O)cc3)cc3c2C(C)(C)CCC3(C)C)cc1 [Ex 3, 4-[4-(4-tert-butylbenzyloxy)-5,5,8,8-tetramethyl-5,6,7,8-tetrahydro-2-naphthylselanylethynyl]benzoic acid]	30	48	15	26.3	4	10
CC1(C)CCC(C)(C)c2c(OCc3cccc(F)c3)cc([Se]C#Cc3ccc(C(=O)O)cc3)cc21 [Ex 1, 4-[4-(3-fluorobenzyloxy)-5,5,8,8-tetramethyl-5,6,7,8-tetrahydro-2-naphthylselanylethynyl]benzoic acid]	4	6.5	8	14	2	5

Next, values leading:

Kd [1] [nM]	IC50 [1] [nM]	Kd [2] [nM]	IC50 [2] [nM]	Kd [3] [nM]	IC50 [3] [nM]	Structure (SMILES)
4	6.4	2	3.5	1	2.5	CC1(C)CCC(C)(C)c2c(OCc3ccc(F)c(F)c3)cc([Se]C#Cc3ccc(C(=O)O)cc3)cc21 [Ex 4, 4-[4-(3,4-difluorobenzyloxy)-5,5,8,8-tetramethyl-5,6,7,8-tetrahydro-2-naphthylselanylethynyl]benzoic acid]
1	1.6	2	3.5	1	2.5	CC1(C)CCC(C)(C)c2c(OCc3ccc(F)cc3F)cc([Se]C#Cc3ccc(C(=O)O)cc3)cc21 [Ex 5, 4-[4-(2,4-difluorobenzyloxy)-5,5,8,8-tetramethyl-5,6,7,8-tetrahydro-2-naphthylselanylethynyl]benzoic acid]
15	24	30	52.5	4	10	Cc1cccc(COc2cc([Se]C#Cc3ccc(C(=O)O)cc3)cc3c2C(C)(C)CCC3(C)C)c1 [Ex 10, 4-[5,5,8,8-tetramethyl-4-(3-methylbenzyloxy)-5,6,7,8-tetrahydro-2-naphthylselanylethynyl]benzoic acid]
